{"source": "patent US20240099214A1", "about": "“PLANT DEFENCE GENE EXPRESSION” (UPL Corporation Limited, priority 2021, published 2024)", "key": {"[1]": {"tested_on": "Avr/Cf9 rapidly elicited protein 75 (gene 5, Solyc11g010250.1)", "experiment": "qRT-PCR expression of gene 5 in tomato leaves", "type": "in vivo, Tomato ecotype corbarino", "design": "key: relative expression normalized to a-tubulin housekeeping gene", "description": "(§1) Tomato ecotype “corbarino” reported to be susceptible to TSWV infection was used in the experiment. Plants were grown in pots in a climatic chamber with a photoperiod of 16/8 hour at 25° C.\n(§2) The viral strain (TSWV PV PV-0393) was utilized in the experiment. The virus was mechanically inoculated and propagated on tomato “corbarino”. The inoculum was prepared in an ice-cooled mortar grounding 1 gr of infected tomato tissue in 10 ml of Na-phosphate buffer 0.01M. The fresh prepared inoculum was stored in ice before use. Tomato plants at BBCH16 were dusted with Carborundum 600 mesh and selected leaves were rubbed with some droplets of inoculum. After 5 min. plants were sprayed with sterile water to remove the excess of inoculum and preserve the cell turgor.\n(§3) Four treatments were compared: i) Mock inoculated; ii) TSWV; iii) 0.25% Laminarin; iv) 0.25% Laminarin+TSWV. In the last treatment the virus was inoculated 24 hrs after the laminarin application.\n(§4) Total RNA was extracted from systemic infected tomato leaves by using the Quick-RNA Plant Kit (Zymo Research) following the manufacturer instructions. The extractions were carried out using three plants after 12 h, 24 h, 48 h, 72 h, 7 days after inoculation. Leaves were instantly frozen in liquid nitrogen after cutting to avoid any deterioration of the sample as well as any defense reaction. The RNA concentration was quantified by measuring the absorbance at 260 nm using a Nanodrop 2000 (Thermofisher). The purity of all of the RNA samples was assessed at an absorbance ratio of OD260/280 and OD260/230, while its structural integrity was checked by agarose gel electrophoresis. Only high-quality RNA with OD 260/280 and OD 260/230>2 was used for subsequent steps. Single-stranded cDNA was synthesized from 1 μg of total RNA using an iScript™ Select cDNA Synthesis Kit and random hexamers as primers (Bio-Rad, Milan, Italy), according to the manufacturer's instructions. Three biological replicates were created from the 3 leaves collected to test 15 genes. Alpha tubulin was used as reference gene.\n(§5) qPCR reactions were performed with BioRad (Applied Biosystems, Foster City, CA, USA) using SYBR R Green. Each reaction was performed in 20 μl containing 10 μl of 2× Power SYBR Green PCR Master Mix (Life Technologies), 0.2-0.3 μM primers and cDNA samples diluted 1:20. Each qPCR reaction was performed in triplicate. Reactions were run using the cycling parameter described previously (Reid et al., 2006) and the qPCR data were analyzed by the Ct method (Pfaffl, 2001). In order to analyze the qPCR data, a-tubulin gene was used as housekeeping to determine the relative expression level of the other genes analyzed in this work. For the determination of qPCR efficiency of each primer pairs, a standard curve was performed using the following cDNA dilutions: 1:4, 1:16, 1:64; 1:256 and 1:1024. Every measurement was made in triplicate. The corresponding qPCR efficiencies (E) were calculated for every primer pair with the software 7300 System SDS software (Applied Biosystems, Foster City, CA, USA) according to the equation E=(10−1/slope−1)×100 (Rutledge and Stewart, 2008).\n(§6) The significance of the differences between the gene expressions levels were compared by one-way ANOVA (p=0.01) and the means were separated by Tukey post-hoc test using SPSS ver.26 ([…])."}, "[2]": {"tested_on": "Regulator of gene silencing (gene 14, AY642285.1)", "experiment": "qRT-PCR expression of gene 14 in tomato leaves", "type": "in vivo, Tomato ecotype corbarino", "design": "key to RQ1 / RQ2 / RQ3 / RQ mean: relative expression normalized to a-tubulin housekeeping gene", "settings": "for gene 14 expression compared to TSWV treatment: 48 hr; for gene 14 expression: 72 hr", "description": "as §1, §2, §3, §4, §5, §6"}, "[3]": {"settings": "Gene_14, 12 hr, treatment Laminarin"}, "[4]": {"settings": "Gene_14, 12 hr, treatment Laminarin + virus"}, "[5]": {"settings": "Gene_14, 24 hr, treatment Laminarin"}, "[6]": {"settings": "Gene_14, 24 hr, treatment Laminarin + virus"}, "[7]": {"settings": "Gene_14, 48 hr, treatment Laminarin"}, "[8]": {"settings": "Gene_14, 48 hr, treatment Laminarin + virus"}, "[9]": {"settings": "Gene_14, 72 hr, treatment Laminarin"}, "[10]": {"settings": "Gene_14, 72 hr, treatment Laminarin + virus"}}, "note": "“Also recorded” adds a separate entry of the source."}
{"substance": "laminarin", "values": [{"measurement": "RQ1", "setting": "[1]; 12 hr, Laminarin + virus", "result": 0.8046}, {"measurement": "RQ2", "setting": "[1]; 12 hr, Laminarin + virus", "result": 10.612}, {"measurement": "RQ3", "setting": "[1]; 12 hr, Laminarin + virus", "result": 11.537}, {"measurement": "RQ mean", "setting": "[1]; 12 hr, Laminarin + virus", "result": 10.065}, {"measurement": "RQ1", "setting": "[1]; 12 hr, Laminarin alone", "result": 0.7901}, {"measurement": "RQ2", "setting": "[1]; 12 hr, Laminarin alone", "result": 11.285}, {"measurement": "RQ3", "setting": "[1]; 12 hr, Laminarin alone", "result": 0.9408}, {"measurement": "RQ mean", "setting": "[1]; 12 hr, Laminarin alone", "result": 0.9531}, {"measurement": "RQ1", "setting": "[1]; 24 hr, Laminarin + virus", "result": 10.601}, {"measurement": "RQ2", "setting": "[1]; 24 hr, Laminarin + virus", "result": 12.023}, {"measurement": "RQ3", "setting": "[1]; 24 hr, Laminarin + virus", "result": 0.9700}, {"measurement": "RQ mean", "setting": "[1]; 24 hr, Laminarin + virus", "result": 10.775}, {"measurement": "RQ1", "setting": "[1]; 24 hr, Laminarin alone", "result": 11.135}, {"measurement": "RQ2", "setting": "[1]; 24 hr, Laminarin alone", "result": 12.189}, {"measurement": "RQ3", "setting": "[1]; 24 hr, Laminarin alone", "result": 0.9994}, {"measurement": "RQ mean", "setting": "[1]; 24 hr, Laminarin alone", "result": 11.106}, {"measurement": "RQ1", "setting": "[1]; 48 hr, Laminarin + virus", "result": 0.8610}, {"measurement": "RQ2", "setting": "[1]; 48 hr, Laminarin + virus", "result": 13.586}, {"measurement": "RQ3", "setting": "[1]; 48 hr, Laminarin + virus", "result": 10.405}, {"measurement": "RQ mean", "setting": "[1]; 48 hr, Laminarin + virus", "result": 10.867}, {"measurement": "RQ1", "setting": "[1]; 48 hr, Laminarin alone", "result": 0.9204}, {"measurement": "RQ2", "setting": "[1]; 48 hr, Laminarin alone", "result": 12.321}, {"measurement": "RQ3", "setting": "[1]; 48 hr, Laminarin alone", "result": 10.531}, {"measurement": "RQ mean", "setting": "[1]; 48 hr, Laminarin alone", "result": 10.685}, {"measurement": "RQ1", "setting": "[1]; 72 hr, Laminarin + virus", "result": 17.401}, {"measurement": "RQ2", "setting": "[1]; 72 hr, Laminarin + virus", "result": 30.624}, {"measurement": "RQ3", "setting": "[1]; 72 hr, Laminarin + virus", "result": 25.095}, {"measurement": "RQ mean", "setting": "[1]; 72 hr, Laminarin + virus", "result": 24.373}, {"measurement": "RQ1", "setting": "[1]; 72 hr, Laminarin alone", "result": 22.196}, {"measurement": "RQ2", "setting": "[1]; 72 hr, Laminarin alone", "result": 23.867}, {"measurement": "RQ3", "setting": "[1]; 72 hr, Laminarin alone", "result": 23.473}, {"measurement": "RQ mean", "setting": "[1]; 72 hr, Laminarin alone", "result": 23.179}, {"measurement": "gene 14 expression compared to TSWV treatment", "setting": "[2]; 0.25% laminarin + TSWV inoculated 24 hrs later", "result": "inverted"}, {"measurement": "gene 14 expression compared to TSWV treatment", "setting": "[2]; 0.25% laminarin alone", "result": "inverted"}, {"measurement": "gene 14 expression", "setting": "[2]; Laminarin alone", "result": "no clear overexpression; also recorded: down regulation"}, {"measurement": "gene 14 expression", "setting": "[2]; laminarin with TSWV", "result": "down regulation"}, {"measurement": "RQ1", "setting": "[2]; [3]", "result": 12.337}, {"measurement": "RQ2", "setting": "[2]; [3]", "result": 10.845}, {"measurement": "RQ3", "setting": "[2]; [3]", "result": 11.390}, {"measurement": "RQ mean", "setting": "[2]; [3]", "result": 11.524}, {"measurement": "RQ1", "setting": "[2]; [4]", "result": 14.800}, {"measurement": "RQ2", "setting": "[2]; [4]", "result": 14.769}, {"measurement": "RQ3", "setting": "[2]; [4]", "result": 10.304}, {"measurement": "RQ mean", "setting": "[2]; [4]", "result": 13.291}, {"measurement": "RQ1", "setting": "[2]; [5]", "result": 15.741}, {"measurement": "RQ2", "setting": "[2]; [5]", "result": 11.640}, {"measurement": "RQ3", "setting": "[2]; [5]", "result": 12.032}, {"measurement": "RQ mean", "setting": "[2]; [5]", "result": 13.138}, {"measurement": "RQ1", "setting": "[2]; [6]", "result": 10.995}, {"measurement": "RQ2", "setting": "[2]; [6]", "result": 12.080}, {"measurement": "RQ3", "setting": "[2]; [6]", "result": 12.197}, {"measurement": "RQ mean", "setting": "[2]; [6]", "result": 11.758}, {"measurement": "RQ1", "setting": "[2]; [7]", "result": 0.3028}, {"measurement": "RQ2", "setting": "[2]; [7]", "result": 0.7177}, {"measurement": "RQ3", "setting": "[2]; [7]", "result": 0.5353}, {"measurement": "RQ mean", "setting": "[2]; [7]", "result": 0.5186}, {"measurement": "RQ1", "setting": "[2]; [8]", "result": 0.5979}, {"measurement": "RQ2", "setting": "[2]; [8]", "result": 0.3384}, {"measurement": "RQ3", "setting": "[2]; [8]", "result": 0.4902}, {"measurement": "RQ mean", "setting": "[2]; [8]", "result": 0.4755}, {"measurement": "RQ1", "setting": "[2]; [9]", "result": 0.2805}, {"measurement": "RQ2", "setting": "[2]; [9]", "result": 0.3706}, {"measurement": "RQ3", "setting": "[2]; [9]", "result": 0.3064}, {"measurement": "RQ mean", "setting": "[2]; [9]", "result": 0.3192}, {"measurement": "RQ1", "setting": "[2]; [10]", "result": 0.5857}, {"measurement": "RQ2", "setting": "[2]; [10]", "result": 0.5072}, {"measurement": "RQ3", "setting": "[2]; [10]", "result": 0.2692}, {"measurement": "RQ mean", "setting": "[2]; [10]", "result": 0.4540}]}
